Test results reported in publication PMC3097502, “Antitrypanosomal and Cytotoxic Activities of 22-Hydroxyclerosterol, a New Sterol from Allexis cauliflora (Violaceae)” (Scientia Pharmaceutica, 2011).

How the values were obtained:
GAPDH of T. brucei = GAPDH of T. brucei (Trypanosoma brucei brucei, UniProt P22512); assay: Enzymatic inhibition of GAPDH (T. brucei); assay type: biochemical
[1] = target: rabbit muscle pyruvate kinase (PyK) (Oryctolagus cuniculus, UniProt P11974); assay: Enzymatic inhibition of PyK (rabbit muscle); assay type: biochemical
Sequence of rabbit muscle pyruvate kinase (PyK) (P11974 whole entry): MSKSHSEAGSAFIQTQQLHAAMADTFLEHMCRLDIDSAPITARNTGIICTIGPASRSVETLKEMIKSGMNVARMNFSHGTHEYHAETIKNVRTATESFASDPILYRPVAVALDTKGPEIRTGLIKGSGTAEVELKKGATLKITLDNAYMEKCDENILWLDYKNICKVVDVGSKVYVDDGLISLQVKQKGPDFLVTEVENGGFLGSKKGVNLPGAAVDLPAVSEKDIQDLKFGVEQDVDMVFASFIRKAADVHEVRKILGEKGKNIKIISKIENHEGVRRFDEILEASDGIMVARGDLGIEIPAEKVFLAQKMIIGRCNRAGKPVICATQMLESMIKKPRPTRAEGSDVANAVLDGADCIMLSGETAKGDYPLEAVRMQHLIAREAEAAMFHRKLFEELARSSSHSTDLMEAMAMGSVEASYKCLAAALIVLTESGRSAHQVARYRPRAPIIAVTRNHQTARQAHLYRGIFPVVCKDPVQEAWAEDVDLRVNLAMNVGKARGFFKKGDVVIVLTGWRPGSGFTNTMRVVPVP

[2] = system: MRC-5 mammalian cells (fibroblasts); assay: Cytotoxicity assay (Alamar Blue, 72 h) on mammalian fibroblasts; assay type: cell-based; conditions: 72 h incubation
Procedure: (§1) Trypanosoma brucei brucei (strain 427) bloodstream forms were cultured in HMI-9 medium containing 10% heat-inactivated. The mammalian fibroblast cell line MRC-5 was grown in DMEM (Gibco) supplemented with 10% heat-inactivated FBS and extra glutamine. Cells were grown at 37 °C in humidified incubators in an atmosphere of 5% CO2 [13].
(§2) The assay performed, the long incubation low inoculation test (LITIT), was previously described by Räz et al., 1997 [14] with minor modifications by Baltz et al., 1985 [15]. To evaluate the selectivity of the in vitro antitrypanosomal activity, in vitro cytotoxicity tests were also performed. The same general method was used in order to facilitate the comparison.
(§3) The compounds were initially dissolved in DMSO at a concentration of 20 mg/ml and diluted with the medium. Series of dilution were done in 96-well plates; each dilution was tested in duplicate. Cells in suspension were thereafter added to each well at a density such as, after 72 h of incubation, in control wells the culture reached the end of logarithmic growth phase (T. brucei), or adhesive cells have formed a confluent monocellular film (mammal cells MRC-5). The highest concentration of DMSO was 0.5%. After 72 h of incubation, Alamar Blue, a marker of cell viability, was added in each well and fluorescence was quantified after a total incubation time of 76 h at an excitation wavelength of 530 nm and at an emission wavelength of 590 nm. ED50 values were calculated by linear interpolation. Assays with commercial drugs were also carried out in order to have reference values. All results represent average values obtained in at least three independent experiments, each experiment comprising a duplicate set of tests.

[3] = target: PyK of Leishmania mexicana (Leishmania mexicana, UniProt Q27686); assay: Enzymatic inhibition of PyK (L. mexicana); assay type: biochemical
Sequence of PyK of Leishmania mexicana (Q27686 whole entry): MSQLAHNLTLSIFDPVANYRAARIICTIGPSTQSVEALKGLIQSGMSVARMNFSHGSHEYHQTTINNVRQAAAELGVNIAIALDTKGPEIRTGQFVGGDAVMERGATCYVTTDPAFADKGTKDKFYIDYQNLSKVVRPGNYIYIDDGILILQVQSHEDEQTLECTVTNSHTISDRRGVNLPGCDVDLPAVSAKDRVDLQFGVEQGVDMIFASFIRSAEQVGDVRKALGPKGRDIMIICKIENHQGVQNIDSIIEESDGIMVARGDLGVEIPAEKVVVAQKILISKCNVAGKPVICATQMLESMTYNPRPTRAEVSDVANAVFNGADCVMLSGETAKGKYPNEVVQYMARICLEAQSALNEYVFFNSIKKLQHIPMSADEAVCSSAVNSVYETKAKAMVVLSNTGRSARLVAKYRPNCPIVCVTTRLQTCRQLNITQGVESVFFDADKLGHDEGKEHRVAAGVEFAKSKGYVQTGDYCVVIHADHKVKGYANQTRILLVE

[4] = system: Trypanosoma brucei brucei bloodstream form (strain 427); assay: Antitrypanosomal assay (LILIT, Alamar Blue, 72 h) on bloodstream forms; assay type: cell-based; conditions: for ED50, growth of Trypanosoma brucei (strain 427): bloodstream form, 72 h incubation, Alamar Blue
Procedure: as §1, §2, §3

PGI of T. brucei = PGI of T. brucei (Trypanosoma brucei brucei, UniProt P13377); assay: Enzymatic inhibition of glycolytic enzyme PGI (T. brucei); assay type: biochemical; conditions: for Ki’ PGI of T. brucei: binding to enzyme-substrate (F6P/PGI) complex
Sequence of PGI of T. brucei (P13377 whole entry): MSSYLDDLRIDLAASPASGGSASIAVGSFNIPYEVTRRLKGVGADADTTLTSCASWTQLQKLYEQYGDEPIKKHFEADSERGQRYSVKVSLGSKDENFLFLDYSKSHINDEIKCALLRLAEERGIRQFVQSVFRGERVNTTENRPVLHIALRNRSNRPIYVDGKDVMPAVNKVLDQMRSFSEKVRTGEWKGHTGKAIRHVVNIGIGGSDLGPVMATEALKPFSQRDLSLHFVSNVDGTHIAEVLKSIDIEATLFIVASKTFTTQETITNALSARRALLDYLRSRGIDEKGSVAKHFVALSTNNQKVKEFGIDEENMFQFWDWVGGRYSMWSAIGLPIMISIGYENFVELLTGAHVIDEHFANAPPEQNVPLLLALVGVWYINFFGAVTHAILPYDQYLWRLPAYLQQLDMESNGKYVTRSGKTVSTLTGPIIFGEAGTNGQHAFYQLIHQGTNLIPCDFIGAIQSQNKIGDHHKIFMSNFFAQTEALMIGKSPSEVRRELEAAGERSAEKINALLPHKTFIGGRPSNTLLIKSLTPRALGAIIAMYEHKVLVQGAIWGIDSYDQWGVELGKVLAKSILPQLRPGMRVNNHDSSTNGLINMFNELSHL

GAPDH Rabbit muscle = target: T1, GAPDH Rabbit muscle (Oryctolagus cuniculus, UniProt P46406); assay: Enzymatic inhibition of GAPDH (rabbit muscle); assay type: biochemical; conditions: n.i. = no inhibition observed at 50 μM
T1 construct: Rabbit muscle; from tissue; host or cells: rabbit muscle
T1 sequence (P46406 whole entry): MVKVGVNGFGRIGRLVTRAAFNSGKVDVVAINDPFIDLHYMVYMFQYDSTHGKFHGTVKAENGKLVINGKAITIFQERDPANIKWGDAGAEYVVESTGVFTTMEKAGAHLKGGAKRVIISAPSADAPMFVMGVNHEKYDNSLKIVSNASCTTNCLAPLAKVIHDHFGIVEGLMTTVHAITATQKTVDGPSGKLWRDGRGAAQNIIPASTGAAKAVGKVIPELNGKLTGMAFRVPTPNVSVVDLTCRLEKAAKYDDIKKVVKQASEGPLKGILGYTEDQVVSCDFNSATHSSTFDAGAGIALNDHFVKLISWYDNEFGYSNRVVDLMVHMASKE
Description: Tab. 3. Enzymatic inhibition (IC50, μM) | column: GAPDH / Rabbit muscle

[5] = system: Trypanosoma brucei brucei bloodstream form (strain 427); parameters: method as in PMID 17637068; conditions: cited from earlier work
[6] = system: MRC-5 mammalian cells (fibroblasts); parameters: method as in PMID 17637068; conditions: cited from earlier work
PGI Rabbit muscle = target: T2, PGI Rabbit muscle (Oryctolagus cuniculus, UniProt Q9N1E2); assay: Enzymatic inhibition of PGI (rabbit muscle); assay type: biochemical; conditions: n.i. = no inhibition observed at 50 μM
T2 construct: Rabbit muscle; from tissue; host or cells: rabbit muscle
Description: Tab. 3. Enzymatic inhibition (IC50, μM) | column: PGI / Rabbit muscle

[7] = n.i. = no inhibition observed at 50 μM

Sequence of GAPDH of T. brucei (P22512 whole entry): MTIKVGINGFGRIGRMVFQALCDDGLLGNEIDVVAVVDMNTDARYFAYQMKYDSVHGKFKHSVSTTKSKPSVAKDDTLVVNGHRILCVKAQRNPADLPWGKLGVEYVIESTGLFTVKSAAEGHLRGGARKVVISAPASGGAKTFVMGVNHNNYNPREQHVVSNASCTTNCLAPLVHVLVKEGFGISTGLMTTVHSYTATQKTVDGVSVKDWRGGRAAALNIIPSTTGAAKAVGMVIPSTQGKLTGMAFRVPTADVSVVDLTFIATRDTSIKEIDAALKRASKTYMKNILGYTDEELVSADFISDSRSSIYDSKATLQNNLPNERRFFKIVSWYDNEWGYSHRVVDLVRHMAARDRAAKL

C=C(C)[C@@H](CC)CC(O)[C@@H](C)[C@H]1CC[C@H]2[C@@H]3CC=C4C[C@@H](O)CC[C@]4(C)[C@H]3CC[C@]12C (stereo partly drawn) [Compound 1, (3β,24S)-Stigmasta-5,25-diene-3,22-diol]
IC50 (GAPDH of T. brucei): 30 ± 10 µM | Ki’ PyK of rabbit muscle ([1]; kinetic studies): 26 ± 3 µM | type of inhibition of PyK of rabbit muscle ([1]; kinetic studies): uncompetitive inhibitor | melting point: 166 to 168 °C | ED50, Mammalian cells (MRC-5 fibroblasts) [2]: 1.12 µM | IC50 [3]: 30 ± 5 µM | Ki [3]: 24 ± 5 µM | Ki’ PyK of Leishmania mexicana ([3]; kinetic studies): 65 ± 10 µM | type of inhibition of PyK of Leishmania mexicana ([3]; kinetic studies): mixed inhibitor | ED50, growth of Trypanosoma brucei (strain 427) [4]: 1.56 µM | fold more potent than compound 2 (ED50, T. brucei brucei growth) ([4]; ratio of ED50 values): 86 fold | IC50 (PGI of T. brucei): 30 ± 10 µM | affinity for F6P/PGI complex relative to affinity of natural substrate (F6P) for PGI (PGI of T. brucei; kinetic studies): 76 fold | type of inhibition of PGI of T. brucei (PGI of T. brucei; kinetic studies): uncompetitive inhibitor | Ki’ PGI of T. brucei (PGI of T. brucei; kinetic studies): 3 ± 1 µM

C=C(C)[C@@H](CC)CC[C@@H](C)[C@H]1CC[C@H]2[C@@H]3CC=C4C[C@@H](O)CC[C@]4(C)[C@H]3CC[C@]12C [Compound 2, (3β,24S)-Stigmasta-5,25-dien-3-ol]
IC50 GAPDH Rabbit muscle (GAPDH Rabbit muscle): n.i. | IC50 GAPDH T. brucei (GAPDH of T. brucei; [7]): n.i. | IC50 PyK Rabbit muscle [1, 7]: n.i. | ED50, Mammalian cells (MRC-5 fibroblasts) [2]: no effect | ED50, Mammalian cells (MRC-5 fibroblasts) ([2]; listed as compound 2): non toxic on mammalian cells | IC50 PyK L. mexicana [3, 7]: n.i. | ED50, growth of Trypanosoma brucei (strain 427) [4]: 134.34 µM | antitrypanosomal activity (known) [5]: weak antitrypanosomal activity | toxicity to mammalian cells (known) [6]: non toxic to mammalian cells | IC50 (PGI of T. brucei): 45 ± 10 µM | Ki (PGI of T. brucei): 10 ± 2 µM | type of inhibition of PGI of T. brucei (PGI of T. brucei; kinetic studies): mixed inhibitor | Ki’ PGI of T. brucei (PGI of T. brucei; kinetic studies): 68 ± 5 µM | IC50 PGI Rabbit muscle (PGI Rabbit muscle): n.i.
